Where two headings read alike, the source gives them in different places.
Legend:
muscarinic receptors [1] = test: Radio ligand binding: displacement of 3H-Oxotremorine-M (muscarinic agonist) from rat cerebral cortex membranes; set-up: species or system Hooded Lister rats; settings: displacement of 2 nM 3H-OXO-M, 2 mM magnesium chloride, 37° C., 30 min, tested as oxalate salts
muscarinic receptors [2] = format: binding, Hooded Lister rats; settings: displacement of 0.27 nM 3H-QNB; rat cerebral cortex; 37° C., 30 min; tested as oxalate salts
[3] = Lambrecht and Mutschler, Arzneim. forsh. 24 (11) 1725, 1974; cited from earlier work

SMILES | IC50 (muscarinic receptors [1]) | IC50 (muscarinic receptors [2]) | cholinergic activity [3]
c1coc(C2CN3CCC2CC3)n1 (racemic) [E5, (±) 3-(1,3-Oxazol-2-yl)-1-azabicyclo[2.2.2]octane] | 0.63 µM | 27 µM | –
Cc1nnc(C2CN3CCC2CC3)o1 (racemic) [E4, (±) 3-(5-Methyl-1,3,4-oxadiazol-2-yl)-1-azabicyclo [2.2.2]octane] | 1 µM | 15 µM | –
Cc1noc([C@@H]2CN3CC[C@@H]2C3)n1 (relative stereo) [E10, (±) exo-3-(3-Methyl-1,2,4-oxadiazol-5-yl)-1-azabicyclo [2.2.1]heptane] | 0.0035 µM | 1.1 µM | –
Cc1noc(C2CN3CCC2CC3)n1 (racemic) [E1, (±) 3-(3-Methyl-1,2,4-oxadiazol-5-yl)-1-azabicyclo [2.2.2]octane] | 0.015 µM | 1.84 µM | –
Cc1noc([C@@H]2CN3CCC[C@@H]2C3)n1 (relative stereo) [E6, (±) exo-6-(3-Methyl-1,2,4-oxadiazol-5-yl)-1-azabicyclo [3.2.1]octane] | 0.041 µM | 2.3 µM | –
c1coc([C@H]2C[C@@H]3CCCN(C3)C2)n1 (relative stereo) [E9, (±) exo-3-(1,3-Oxazol-2-yl 1-azabicyclo[3.3.1]nonane] | 0.16 µM | 3.1 µM | –
c1nnc(C2CN3CCC2CC3)o1 (racemic) [E8, (±) 3-(1,3,4-Oxadiazol-2-y.)-1-azabicyclo[2.2.2]octane] | 2.8 µM | 63 µM | –
COC(=O)C1CN2CCC1CC2 (stereo not shown) [3-Methoxycarbonylquinuclidine] | – | – | possess cholinergic activity
Cc1noc([C@H]2C[C@@H]3CCN(C3)C2)n1 (relative stereo) [E3, (±) exo-3-(3-Methyl-1,2,4-oxadiazol-5-yl)-1-azabicyclo [3.2.1]octane] | 0.025 µM | 1.84 µM | –
Cc1nc(C2CN3CCC2CC3)no1 (racemic) [E2, (±) 3-(5-Methyl-1,2,4-oxadiazol-3-yl)-1-azabicyclo [2.2.2]octane] | 1.1 µM | 17 µM | –

— US4968691A (priority 1986, dated 1990)
